Values quoted from earlier work in patent US20200138985A1, “KIT FOR LABELING A PROSTATE-SPECIFIC MEMBRANE ANTIGEN LIGAND WITH A RADIOACTIVE ISOTOPE” (Isotopia Molecular Imaging Ltd., priority 2015, published 2020).

Molecular target: T1, PSMA (Homo sapiens, UniProt Q04609)
T1 construct: In cell research with PSMA-positive androgen-insensitive LNCaP-C4-2 cells; endogenous in cells; host or cells: LNCaP-C4-2 cells
Conditions: PSMA-positive androgen-insensitive LNCaP-C4-2 cells

T1 sequence (Q04609 whole entry): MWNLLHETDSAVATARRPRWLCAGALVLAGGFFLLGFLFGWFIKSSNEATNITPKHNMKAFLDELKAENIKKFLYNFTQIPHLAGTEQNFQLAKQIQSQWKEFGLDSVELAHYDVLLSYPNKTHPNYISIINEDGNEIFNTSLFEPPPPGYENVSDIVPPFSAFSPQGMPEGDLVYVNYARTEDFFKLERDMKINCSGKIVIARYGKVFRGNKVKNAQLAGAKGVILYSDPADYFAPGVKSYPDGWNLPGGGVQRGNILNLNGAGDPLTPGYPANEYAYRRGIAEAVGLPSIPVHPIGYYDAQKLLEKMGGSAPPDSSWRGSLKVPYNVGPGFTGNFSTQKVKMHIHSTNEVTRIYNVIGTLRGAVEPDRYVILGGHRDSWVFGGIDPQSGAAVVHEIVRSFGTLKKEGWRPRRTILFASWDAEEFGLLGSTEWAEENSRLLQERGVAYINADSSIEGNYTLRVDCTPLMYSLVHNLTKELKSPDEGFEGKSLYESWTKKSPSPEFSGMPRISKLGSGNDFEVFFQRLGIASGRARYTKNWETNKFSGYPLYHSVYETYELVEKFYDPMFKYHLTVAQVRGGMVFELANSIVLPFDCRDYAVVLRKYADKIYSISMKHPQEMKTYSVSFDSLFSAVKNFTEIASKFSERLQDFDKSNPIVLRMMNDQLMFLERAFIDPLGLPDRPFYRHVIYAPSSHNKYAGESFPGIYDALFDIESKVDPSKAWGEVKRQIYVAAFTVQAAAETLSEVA

| Substance | Kd |
| --- | --- |
| cyclohexyl-diethylene triamine pentaacetic acid-(5S,8S,22S,26S)-1-amino-5,8-dibenzyl-4,7,10,19,24-pentaoxo-3,6,9,18,23,25-hexaazaoctacosane-22,26,28- tricarboxylic acid [CHX-A″-DTPA-DUPA-Pep] | ≤ 14.7 nM |
| (5S,8S,22S,26S)-1-amino-5,8-dibenzyl-4,7,10,19,24-pentaoxo-3,6,9,18,23,25-hexaazaoctacosane-22,26,28-tricarboxylic acid (DUPA-Pep), conjugated with 1,4,7,10-tetraazacyclododecane-N,N,N′,N″-tetraacetic acid (DOTA) | 21.6 ± 0.4 nM |
